{
  "source": "patent US20040072894A1",
  "about": "“Stable pharmaceutical formulation comprising a HMG-CoA reductase inhibitor” (priority 1998, published 2004)",
  "test": "pH of pravastatin sodium crystals kept in normal air, nitrogen or carbon dioxide atmosphere",
  "assay_type": "physicochemical",
  "experimental": "Another observation was that carbon dioxide from the air can irreversibly bind to the active substance and can cause a drop of pH. This is illustrated by the following experiment: 5 g of pravastatin sodium were dissolved in 30 ml of methanol, the pH was adjusted to 10 with 3% aqueous solution of NaOH. 400 ml of ethylacetate were added and the crystals of pravastatin sodium were formed. Crystals were filtered and dried and then put into three different atmospheres: normal air, nitrogen atmosphere and carbon dioxide atmosphere. In normal air and in the nitrogen atmosphere the pH remained the same during a period of 24 hours (normal air: 9.2, nitrogen: 9.5), but in the carbon dioxide atmosphere the pH dropped in the first two minutes from 9.2 to 6.9. After 12 minutes the pH was 6.6 and after 1 hour the pH was 6.5. After that, the pH remained constant. The third observation is that a sufficient stabilization of the active substance is already obtained at a pH of at least 7.0, but a beneficially high stability is effected at a pH of at least 8.0. We have noticed that at a pH below 8 the formation of lactone has occured and also the amount of other impurities has increased. The presence of humidity in the air and a carbon dioxide-rich atmosphere makes the negative effect of a low pH even stronger. This is illustrated by the following experiment: Pravastatin was dissolved in different buffers with the pH in a range between 7 and 11 (F=phosphate, C=citrate, B=borate). The occurrence of pravastatin in lactone form and the formation of different degradation products (impurities) was measured after 1, 5, 13 and 28 days.",
  "data": [
    {"compound": "CC[C@H](C)C(=O)O[C@H]1C[C@H](O)C=C2C=C[C@H](C)[C@H](CC[C@@H](O)C[C@@H](O)CC(=O)O)[C@H]21", "note": "[Pravastatin sodium, pravastatin sodium]", "values": [
      {"measurement": "pH", "setting": "carbon dioxide atmosphere, after 12 minutes", "value": 6.6},
      {"measurement": "pH", "setting": "carbon dioxide atmosphere, after 1 hour", "value": 6.5},
      {"measurement": "pH", "setting": "carbon dioxide atmosphere, after the first two minutes", "value": 6.9},
      {"measurement": "pH", "setting": "carbon dioxide atmosphere, starting value", "value": 9.2},
      {"measurement": "pH", "setting": "crystals in nitrogen atmosphere, remained the same during 24 hours", "value": 9.5},
      {"measurement": "pH", "setting": "crystals in normal air, remained the same during 24 hours", "value": 9.2}
    ]}
  ]
}
